Data set [1] addresses human somatostatin sst2 receptor (human) (UniProt P30874). The experiment in a line: cell-based or functional assay.
Data set [2] can be described thus: In vivo pharmacokinetic profile in rat after IV injection (ELISA). Here is the method:
The rat was restrained manually at the designated time points, approximately 300 μL of blood sample was collected via jugular vein into EDTA-K2 tubes and subsequently centrifuged at 4° C. and 1500 g for 10 min to obtain plasma samples.
Standard curve was prepared by the following procedure. Duplicate standard points were prepared by serially diluting Free SST Stock (1 mg/mL) with diluent buffer to produce 5, 2.5, 1.25, 0.625, 0.313, 0.156, 0.078 and 0.039 ng/mL solutions.
Standard curve was prepared by the following procedure. Duplicate standard points were prepared by serially diluting SST fusion protein (2.42 mg/mL) with pooled rat plasma to produce 225, 112.5, 56.2, 28.1, 14.1, 7.03, 3.51 and 1.76 ng/mL solutions.
ELISA assay has been performed as described in Example 5-3.

Setting [3] is: rat, intravenous, SST 0.02 mg/kg, SST fusion protein 27.1 mg/kg.

Chain of UniProt P30874 (P30874 whole entry): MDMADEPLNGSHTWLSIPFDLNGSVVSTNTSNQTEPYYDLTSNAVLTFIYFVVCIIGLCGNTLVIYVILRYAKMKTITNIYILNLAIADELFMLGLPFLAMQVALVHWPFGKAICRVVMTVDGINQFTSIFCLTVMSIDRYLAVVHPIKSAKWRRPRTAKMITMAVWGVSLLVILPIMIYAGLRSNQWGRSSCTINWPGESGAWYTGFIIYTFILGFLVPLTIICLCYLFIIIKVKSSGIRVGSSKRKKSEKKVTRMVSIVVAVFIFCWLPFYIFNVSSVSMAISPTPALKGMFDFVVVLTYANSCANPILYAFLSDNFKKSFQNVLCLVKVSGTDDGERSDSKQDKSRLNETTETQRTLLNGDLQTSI

In the case of Octreotide (peptide), in data set [1], the EC50 values of the inhibition of cAMP production turned out to be 0.041 nM.
Turning to `C[C@H](N)C(=O)NCC(=O)N[C@H]1CSSC[C@@H](C(=O)O)NC(=O)[C@H](CO)NC(=O)[C@H]([C@@H](C)O)NC(=O)[C@H](Cc2ccccc2)NC(=O)[C@H]([C@@H](C)O)NC(=O)[C@H](CCCCN)NC(=O)[C@H](Cc2c[nH]c3ccccc23)NC(=O)[C@H](Cc2ccccc2)NC(=O)[C@H](Cc2ccccc2)NC(=O)[C@H](CC(N)=O)NC(=O)[C@H](CCCCN)NC1=O` [Free SST], the “clinical signs after injection” value in data set [2] (male Sprague Dawley rats, tail vein injection, SST 0.02 mg/kg, SST fusion protein 27.1 mg/kg) was “no negative clinical signs were observed”. In data set [2] (male, Sprague Dawley, in vivo, rat, IV 0.02 mg/kg, sampling time 1 min, read-out: Plasma SST concentration, Mean), the level at 1 min worked out at 7.13 ng/mL. The level at 2 min in data set [2] (male, Sprague Dawley, in vivo, rat, IV 0.02 mg/kg, sampling time 2 min, read-out: Plasma SST concentration, Mean) worked out at 4.95 ng/mL. In data set [2] (male, Sprague Dawley, in vivo, rat, IV 0.02 mg/kg, sampling time 4 min, read-out: Plasma SST concentration, Mean), the level at 4 min was determined as 4.3 ng/mL. In addition, the level at 0.1 h in data set [2] (male, Sprague Dawley, in vivo, rat, IV 0.02 mg/kg, sampling time 6 min, read-out: Plasma SST concentration, Mean) was 1.07 ng/mL. Also, in data set [2] (male, Sprague Dawley, in vivo, rat, IV 0.02 mg/kg, sampling time 8 min, read-out: Plasma SST concentration, Mean), the level at 8 min was 2.95 ng/mL. Moreover, the AUC(0-inf) in data set [2] (male, Sprague Dawley, in vivo, rat, intravenous, SST 0.02 mg/kg, SST fusion protein 27.1 mg/kg, read-out: AUC0-inf, Mean (converted)) is 0.73 ng·h/mL. For the same compound, the AUC(0-t) in data set [2] (male, Sprague Dawley, in vivo, rat, intravenous, SST 0.02 mg/kg, SST fusion protein 27.1 mg/kg, read-out: AUC0-t, Mean (converted)) was 0.483 ng·h/mL. The clearance in data set [2] (male, Sprague Dawley, in vivo, rat, intravenous, SST 0.02 mg/kg, SST fusion protein 27.1 mg/kg, read-out: CL, Mean) worked out at 510 mL/min/kg. Further, in data set [2] (male, Sprague Dawley, in vivo, rat, intravenous, SST 0.02 mg/kg, SST fusion protein 27.1 mg/kg, read-out: Vdss, Mean), the Vd worked out at 2.19 L/kg. In data set [2] (rat, IV 0.02 mg/kg, sampling time 0 min), the “Plasma SST concentration, Mean” value is on record as 0 ng/mL. For the same compound, in data set [2] (setting [3]), the “AUMC0-inf, Mean” value is 173 mg · h^2/mL; the “AUMC0-t, Mean” value stood at 55.9 mg · h^2/mL; the “MRTIV, Mean” value was 4.1 h.
